A short description of experiment [1]: Anticonvulsant activity against audiogenic tonic seizures in DBA/2 mice, administered ip 30 minutes before auditory stimulation. The experiment is classed as functional. The settings on record: Mus musculus.
The species entered for experiment [2] is Mus musculus. Briefly: Ratio of TD50 to ED50, expressed as protective index. The experiment is classed as functional.
Experiment [3] is described as follows: Anticonvulsant activity against audiogenic Clonic seizures in DBA/2 mice, administered ip 30 minutes before auditory stimulation. The class given is functional. The following applies: Mus musculus.
The species entered for experiment [4] is Mus musculus. Briefly: Dose required to produce locomotor deficit assessed by rotarod test in DBA/2 mice. The experiment is classed as functional. A general note: Falling from the rotarod earlier than controls is read as motor impairment.
Experiment [5] deals with Mus musculus. As to the kind of experiment: Effective dose required for anticonvulsant activity against AMPA-induced clonic seizure in Swiss mice 45 minutes after ip administration of the compound. The following applies: 0.75 h. The class given is functional.
Experiment [6] relates to Mus musculus. Briefly: Effective dose required for anticonvulsant activity against AMPA-induced tonic seizure in Swiss mice 45 minutes after ip administration of the compound. The class given is functional. The settings on record: 0.75 h.
In experiment [7] the test system is Mus musculus. Briefly: Effective dose required for anticonvulsant activity by ip administration against clonic phase of audiogenic seizures in DBA/2 mice after pretreatment with aniracetam+ 2,3-benzodiazepine (p<0.01). The experiment is classed as functional.
The subject of experiment [8] is Mus musculus. Briefly: Effective dose required for anticonvulsant activity by ip administration against tonic phase of audiogenic seizures in DBA/2 mice after pretreatment with aniracetam+ 2,3-benzodiazepine (p<0.01). The experiment is classed as functional.
For experiment [9], the system named is Mus musculus. Briefly: Effective dose required for anticonvulsant activity against Clonic phase of seizure in DBA/2 mice 120 minutes after ip administration of the compound. The class given is functional. The settings on record: 2 h.
For experiment [10], the system named is Mus musculus. As to the kind of experiment: Effective dose required for anticonvulsant activity against Clonic phase of seizure in DBA/2 mice 15 minutes after ip administration of the compound. The experiment is classed as functional. The following applies: 0.25 h.
Experiment [11] has as its system Mus musculus. Briefly: Effective dose required for anticonvulsant activity against Clonic phase of seizure in DBA/2 mice 30 minutes after ip administration of the compound. The experiment is classed as functional. The settings on record: 0.5 h.
Experiment [12] relates to Mus musculus. Briefly: Effective dose required for anticonvulsant activity against Clonic phase of seizure in DBA/2 mice 45 minutes after ip administration of the compound. The experiment is classed as functional. The following applies: 0.75 h.
Experiment [13] relates to Mus musculus. Briefly: Effective dose required for anticonvulsant activity against Clonic phase of seizure in DBA/2 mice 60 minutes after ip administration of the compound. The class given is functional. The following applies: 1 h.
In experiment [14] the test system is Mus musculus. As to the kind of experiment: Effective dose required for anticonvulsant activity against Clonic phase of seizure in DBA/2 mice 90 minutes after ip administration of the compound. The class given is functional. The following applies: 1.5 h.
For experiment [15], the system named is Mus musculus. Briefly: Effective dose required for anticonvulsant activity against KA-induced seizure was evaluated in Swiss mice on sc administration at CD97 (32 mg/kg) 15 minutes after ip injection of compound. The class given is functional. The settings on record: 0.25 h.
The subject of experiment [16] is Mus musculus. Briefly: Effective dose required for anticonvulsant activity against MES-induced Tonic seizure in Swiss mice 45 minutes after ip administration of the compound. The settings on record: 0.75 h. The class given is functional.
The species named for experiment [17] is Mus musculus. As to the kind of experiment: Percent reduction of KA-evoked current with the patch clamp technique in cerebellar granule neurons grown in primary culture at a dose level of 100 uM was evaluated. The experiment is classed as functional. For orientation: Patch clamp records ionic current or voltage across a cell membrane.
The test system of experiment [18] is Mus musculus. As to the kind of experiment: Effective dose required for anticonvulsant activity against AMPA-induced Tonic seizure in DBA/2 mice 45 minutes after ip administration of the compound. The following applies: 0.75 h.
Experiment [19] concerns Mus musculus. As to the kind of experiment: Effective dose required for anticonvulsant activity against PTZ-induced Clonic seizure in Swiss mice 45 minutes after ip administration of the compound. The settings on record: 0.75 h.

A word on the ED50: it is the dose at which the effect has come halfway, by size or by number of responders.

On to `CC(=O)NN1N=C(c2ccc(N)cc2)c2cc3c(cc2CC1=O)OCO3`, for which the ED50 is 10.9 µmol/kg in [1], 15.4 µmol/kg in experiment [3] and 99.1 µmol/kg in the experiment listed under Mus musculus [4]. Further, the Ratio in the experiment filed under Mus musculus [2] amounted to 4.5.

Turning to `CCCC(=O)NN1N=C(c2ccc(N)cc2)c2cc3c(cc2CC1=O)OCO3`, the median effective dose (ED50) in experiment [1] was determined as 5.09 µmol/kg; in [3], 69.4 µmol/kg. Besides, the Ratio in the experiment listed under Mus musculus [2] is 3.4. Moreover, in the experiment filed under Mus musculus [4], the TD50 is 398 µM/kg.

Consider `CC(=O)NN1NC(c2ccc(N)cc2)c2cc3c(cc2CC1=O)OCO3` (centres undefined), for which the results for the ED50 in [1] and in experiment [3] were 49.2 µmol/kg and 69.4 µmol/kg, respectively. For the same molecule, the Ratio in the experiment listed under Mus musculus [2] was found to be 2.6. Moreover, in the experiment listed under Mus musculus [4], the TD50 amounted to 182 µM/kg.

Turning to `CCC(=O)NN1N=C(c2ccc(N)cc2)c2cc3c(cc2CC1=O)OCO3`, the 50% effective dose (ED50) amounted to 6.47 µmol/kg in experiment [1] and 11.4 µmol/kg in experiment [3]. In addition, in the experiment listed under Mus musculus [2], the Ratio is 3.6. For the same molecule, in the experiment listed under Mus musculus [4], the TD50 was determined as 41.2 µM/kg.

Regarding `O=C1Cc2cc3c(cc2C(c2ccccc2)=NN1)OCO3`, the Ratio in the experiment listed under Mus musculus [2] turned out to be 3.7.

As for `CCC(=O)NN1NC(c2ccc(N)cc2)c2cc3c(cc2CC1=O)OCO3` (centres undefined), the 50% effective dose (ED50) in [1] stood at 18.1 µmol/kg; in experiment [3] it was 24.6 µmol/kg. Further, the Ratio in the experiment listed under Mus musculus [2] was determined as 3.5. In the experiment filed under Mus musculus [4], this molecule yielded a TD50 of 86.1 µM/kg.

Turning to `CC1=NN=C(c2ccc(N)cc2)c2cc3c(cc2C1)OCO3` [GYKI-52466], the Ratio in the experiment listed under Mus musculus [2] is 2.1.

`Nc1ccc(C2=NNC(=O)Cc3cc4c(cc32)OCO4)cc1`: the values for the ED50 with Mus musculus [5] and in the experiment on Mus musculus [6] were 37.6 µmol/kg and 27 µmol/kg, respectively.

Turning to `Nc1ccc(C2NNC(=O)Cc3cc4c(cc32)OCO4)cc1` (centres undefined), the ED50 was 6.47 µmol/kg in experiment [1]; 52.3 µmol/kg in the experiment on Mus musculus [7]; 33.1 µmol/kg with Mus musculus [8]; 24.6 µmol/kg in the experiment on Mus musculus [5]; 39.5 µmol/kg in the experiment on Mus musculus [9]; above 50 µmol/kg in the experiment with Mus musculus [10]. For the same molecule, the ED50 in the experiment with Mus musculus [11] was determined as 11.4 µmol/kg; in the experiment on Mus musculus [12], 18.7 µmol/kg; with Mus musculus [13], 23.4 µmol/kg; in the experiment on Mus musculus [14] it was 37.1 µmol/kg; in the experiment on Mus musculus [15] it was 15.9 µmol/kg; with Mus musculus [16], 35.7 µmol/kg. Further, the median effective dose (ED50) in [3] came out at 11.4 µmol/kg; in the experiment with Mus musculus [18] it was 17.5 µmol/kg; with Mus musculus [19], 59.7 µmol/kg. Further, in the experiment listed under Mus musculus [2], the Ratio turned out to be 3.6. The Reduction in the experiment listed under Mus musculus [17] is given as 38%.

On to `CCCC(=O)NN1NC(c2ccc(N)cc2)c2cc3c(cc2CC1=O)OCO3` (centres undefined), for which the ED50 in [1] stood at 32.6 µmol/kg; in experiment [3], 38.7 µmol/kg. In the experiment filed under Mus musculus [2], the Ratio was found to be 2.8. Further, the TD50 in the experiment listed under Mus musculus [4] turned out to be 108 µM/kg.

Take `CCCCC(=O)NN1N=C(c2ccc(N)cc2)c2cc3c(cc2CC1=O)OCO3`: the ED50 in experiment [1] turned out to be 14.2 µmol/kg; in [3] it was 22.4 µmol/kg. In the experiment listed under Mus musculus [2], the Ratio stood at 4.7. In the experiment listed under Mus musculus [4], this molecule returned a TD50 of 673 µM/kg.

The values are drawn from ChEMBL document CHEMBL1134185, “Synthesis and anticonvulsant activity of novel and potent 1-aryl-7,8-methylenedioxy-1,2,3,5-tetrahydro-4H-2,3-benzodiazepin-4-ones” (2001).
